From PubChem BioAssay AID2060363 (Molecular Pharmacology Branch, DTP, NCI, 2025)

System: 156681-154-R-J1-PDC tumor spheroids, viability % test/control
Assay: Anticancer human tumor 156681-154-R-J1-PDC patient-derived melanoma cell line growth inhibition [TAK]
Conditions: spheroids with HUVEC and MSC; for IC50: curve of first compound; for viability, T/C: stronger effect = lower value; active = viability on the fitted dose curve at most 10% of control; inactive = the rest
Outline: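 Tumor cells were grown as spheroids with HUVEC and hMSC (60:25:15) and treated with targeted agents combined with TAK-243 or ipatasertib. Drugs were tested in half-log steps down from near the clinical Cmax, or from 10 microM where Cmax was unknown.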
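Note: spheroids exposed to compounds for 7 days before the endpoint.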

Cn1cnc2c(F)c(Nc3ccc(Br)cc3Cl)c(C(=O)NOCCO)cc21 + CC(C)NCC(C(=O)N1CCN(c2ncnc3c2C(C)CC3O)CC1)c1ccc(Cl)cc1
active: viability, T/C (second compound 0.3 µM, first compound 3 µM) 9.69% | viability, T/C (second compound 0.949 µM, first compound 3 µM) 7.25% | viability, T/C (second compound 3 µM, first compound 3 µM) 4.67% | viability, T/C (second compound 9.49 µM, first compound 0.949 µM) 7.73% | viability, T/C (second compound 9.49 µM, first compound 3 µM) 1.63% | viability, T/C (second compound 30 µM, first compound 0.3 µM) 10.4% | viability, T/C (second compound 30 µM, first compound 0.949 µM) 2.66% | viability, T/C (second compound 30 µM, first compound 3 µM) 0.54%
602 nM: IC50 (second compound 0.3 µM)
< 9.49 nM: IC50 (second compound 9.49 µM) | IC50 (second compound 30 µM)
inactive: viability, T/C (second compound 0.3 µM, first compound 0.00949 µM) 96.6% | viability, T/C (second compound 0.3 µM, first compound 0.03 µM) 97% | viability, T/C (second compound 0.3 µM, first compound 0.0949 µM) 83.8% | viability, T/C (second compound 0.3 µM, first compound 0.3 µM) 81.2% | viability, T/C (second compound 0.3 µM, first compound 0.949 µM) 30% | viability, T/C (second compound 0.949 µM, first compound 0.00949 µM) 81.1% | viability, T/C (second compound 0.949 µM, first compound 0.03 µM) 78.3% | viability, T/C (second compound 0.949 µM, first compound 0.0949 µM) 86.2% | viability, T/C (second compound 0.949 µM, first compound 0.3 µM) 71.3% | viability, T/C (second compound 0.949 µM, first compound 0.949 µM) 21.4% | viability, T/C (second compound 3 µM, first compound 0.00949 µM) 69.1% | viability, T/C (second compound 3 µM, first compound 0.03 µM) 73.4% | viability, T/C (second compound 3 µM, first compound 0.0949 µM) 68.6% | viability, T/C (second compound 3 µM, first compound 0.3 µM) 53.6% | viability, T/C (second compound 3 µM, first compound 0.949 µM) 13.1% | viability, T/C (second compound 9.49 µM, first compound 0.00949 µM) 43.3% | viability, T/C (second compound 9.49 µM, first compound 0.03 µM) 44.8% | viability, T/C (second compound 9.49 µM, first compound 0.0949 µM) 36.6% | viability, T/C (second compound 9.49 µM, first compound 0.3 µM) 24.6% | viability, T/C (second compound 30 µM, first compound 0.00949 µM) 20.6% | viability, T/C (second compound 30 µM, first compound 0.03 µM) 17.8% | viability, T/C (second compound 30 µM, first compound 0.0949 µM) 15.7%
493 nM: IC50 (second compound 0.949 µM)
331 nM: IC50 (second compound 3 µM)
